# In patent US20230219892A1, “FORMS AND COMPOSITIONS OF A BETA ADRENERGIC AGONIST” (Curasen Therapeutics, Inc., priority 2020, published 2023):
# Like-named read-outs stand apart in the source and are kept apart here.
# What was measured:
# [1] = Solubility testing in biorelevant media (SGF, FaSSIF, FeSSIF) and water, shaken at 37° C. for up to 24 hours; type: physicochemical; conditions: for Solubility (mg/mL) 0.5 h / solubility / solubility at 0.5 h: 37° C.; for solubility / solubility at 0.5 h: 37 °C, thermodynamic from solid; for time until dissolved in each medium: shaking at 37° C., about 15 mg in 3 mL of each of the 4 media; for solubility at 0.5 h: read-out: Solubility (mg/mL) 0.5 h
# Description: (§1) HPLC analysis was performed with an Agilent HPLC 1260 series instrument.
# Compound 1 Form A, Compound 2 Form A and Compound 9 Form A were tested for stability in three biorelevant media and water at 37° C. for 0.5, 2 and 24 hours. About 15 mg of Compound 1 Form A, Compound 2 Form A and Compound 9 Form A were weighted into four separate vials each and to each set of vials was added 3 mL of one of the following biorelevant media: simulated gastric […] fluid (SGF), fasted state simulated intestinal fluid (FaSSIF), fed state simulated intestinal fluid (FeSSIF), and water. All samples were shaken at 200 rpm at 37° C. for up to 24 hours. […] Compound 9 Form A dissolved in each medium after about 15 minutes of shaking at 37° C. Compound 1 Form A dissolved in each medium over the course of about 2 hours of shaking at 37° C. […] The results of the solubility test are summarized below in Table 18: […]
# [2] = Estimated solubility test: medium added stepwise at rt until the solid dissolved; type: physicochemical; conditions: for solubility: thermodynamic from solid
# Description: As all of the samples dissolved after about 2 hours, estimated solubility testing was conducted, wherein about 5 mg of Compound 1 Form A, Compound 2 Form A and Compound 9 Form A were weighed into four separate vials each and each media was added stepwise while stirring at rt until the solid dissolved.
# [3] = Solid stability at 60° C. and 40° C./75%RH for 7 days (purity by HPLC, solid form); type: physicochemical; conditions: for Purity @ 0 d (Area%): start of solid stability test; for Purity @ 0 d (Area%) / Purity @ 7 d (Area%) 40° C./75%RH / Purity @ 7 d (Area%) 60° C.: HPLC; for Solid form @ 7 d 40° C./75%RH / Purity @ 7 d (Area%) 40° C./75%RH: 7 d at 40° C./75%RH; for Solid form @ 7 d 60° C. / Purity @ 7 d (Area%) 60° C.: 7 d at 60° C.
# Description: as §1
# Solid stability of Compound 1 Form A, Compound 2 Form A and Compound 9 Form A were evaluated at 60° C. and 40° C./75%RH for 7 days. Purity was determined via HPLC. […] All tested compounds retained the same solid form after the 7-day experiment.
# β2 adrenergic receptor = β2 adrenergic receptor (Homo sapiens, UniProt P07550); assay: Agonism of the β2 adrenergic receptor (statement, no method given)
# [4] = Blood-brain barrier crossing and accumulation in cerebral spinal fluid (statement, no method given)
# [5] = Dynamic vapor sorption (DVS) moisture sorption/desorption; type: physicochemical; conditions: for XRPD pattern after DVS testing: after DVS full cycle
# Description: Moisture sorption/desorption data was collected on a DVS Intrinsic (SMS, UK). The sample was placed into a tared sample chamber and automatically weighed. The sample was dried at 40° C. until the dm/dt was less than 0.002% and cooled to 25° C. The instrument parameters were set as detailed below. Step time (min): 60 min; Sample temperature: 25° C.; Cycle: Full cycle; Adsorption: 0, 10, 20, 30, 40, 50, 60, 70, 80, 90; Desorption: 80, 70, 60, 50, 40, 30, 20, 10, 0; Save Data Rate: 5 s; Total flow rate: 200 sccm; Post experiment total flow: 200 sccm.
# [6] = SGF, FaSSIF, FeSSIF and water, SGF, FaSSIF, FeSSIF and water, about 15 mg in 3 mL, read-out: solubility in each medium
# [7] = FaSSIF, fassif, FaSSIF, shaken 200 rpm, 2 and 24 h, read-out: Solubility (mg/mL) 2 and 24 h
# [8] = FaSSIF, fassif, FaSSIF, shaken 200 rpm
# [9] = FeSSIF, fessif, FeSSIF, shaken 200 rpm, 2 and 24 h, read-out: Solubility (mg/mL) 2 and 24 h
# [10] = FeSSIF, fessif, FeSSIF, shaken 200 rpm
# [11] = SGF, simulated gastric fluid, SGF, shaken 200 rpm, 2 and 24 h, read-out: Solubility (mg/mL) 2 and 24 h
# [12] = SGF, simulated gastric fluid, SGF, shaken 200 rpm
# [13] = water, water, Water, shaken 200 rpm, 2 and 24 h, read-out: Solubility (mg/mL) 2 and 24 h
# [14] = water, water, Water, shaken 200 rpm
# Sequence of β2 adrenergic receptor (P07550 whole entry): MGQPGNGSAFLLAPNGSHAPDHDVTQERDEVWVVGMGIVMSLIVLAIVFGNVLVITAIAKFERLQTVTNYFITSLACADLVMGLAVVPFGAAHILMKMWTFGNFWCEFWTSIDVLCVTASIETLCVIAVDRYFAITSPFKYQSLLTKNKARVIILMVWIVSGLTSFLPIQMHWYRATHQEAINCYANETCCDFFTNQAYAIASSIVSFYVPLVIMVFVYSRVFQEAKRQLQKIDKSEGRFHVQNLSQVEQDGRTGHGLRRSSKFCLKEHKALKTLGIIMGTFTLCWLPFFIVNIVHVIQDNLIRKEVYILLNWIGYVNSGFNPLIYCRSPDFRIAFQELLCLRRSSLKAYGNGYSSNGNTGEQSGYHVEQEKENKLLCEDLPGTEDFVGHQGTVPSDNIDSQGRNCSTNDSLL
structure (smiles),measurement,setting,value
"CC(C)(C)NC[C@H](O)c1cccc(C#N)n1 [Compound 1, (S)-6-(2-(tert-butylamino)-1-hydroxyethyl)picolinonitrile]",Solubility (mg/mL) 0.5 h,"[1]; FaSSIF, shaken 200 rpm, listed as Compound 1 Form A",4.33 mg/mL
same,Solubility (mg/mL) 0.5 h,"[1]; FeSSIF, shaken 200 rpm, listed as Compound 1 Form A",4.41 mg/mL
same,Solubility (mg/mL) 0.5 h,"[1]; SGF, shaken 200 rpm, listed as Compound 1 Form A",4.76 mg/mL
same,solubility,[1]; [6],> 5 mg/mL
same,Solubility (mg/mL) 0.5 h,"[1]; Water, shaken 200 rpm, listed as Compound 1 Form A",4.19 mg/mL
same,pH 24 h,"[1]; pH of solubility sample in FaSSIF at 24 h (control 6.53), listed as Compound 1 Form A",8.03
same,pH 24 h,"[1]; pH of solubility sample in FeSSIF at 24 h (control 5.01), listed as Compound 1 Form A",5.52
same,pH 24 h,"[1]; pH of solubility sample in SGF at 24 h (control 1.19), listed as Compound 1 Form A",1.20
same,pH 24 h,"[1]; pH of solubility sample in water at 24 h (control 5.26), listed as Compound 1 Form A",10.35
same,time until dissolved in each medium,[1]; listed as Compound 1 Form A,about 2 hours
same,Solubility (mg/mL) FaSSIF,"[2]; FaSSIF, listed as Compound 1 Form A",~6.3 mg/mL
same,Solubility (mg/mL) FeSSIF,"[2]; FeSSIF, listed as Compound 1 Form A",~9.1 mg/mL
same,Solubility (mg/mL) SGF,"[2]; SGF, listed as Compound 1 Form A",~12.7 mg/mL
same,Solubility (mg/mL) Water,"[2]; water, listed as Compound 1 Form A",~5.0 mg/mL
same,Purity @ 0 d (Area%),[3]; listed as Compound 1 Form A,96.09% Area%
same,decrease in purity,"[3]; 7 d, under both sets of conditions (60° C. and 40° C./75%RH)",~ 0.3%
same,Solid form @ 7 d 40° C./75%RH,[3],unchanged
same,Purity @ 7 d (Area%) 40° C./75%RH,[3]; listed as Compound 1 Form A,95.78% Area%
same,Solid form @ 7 d 60° C.,[3],unchanged
same,Purity @ 7 d (Area%) 60° C.,[3]; listed as Compound 1 Form A,95.76% Area%
same,activity at the β2 adrenergic receptor,β2 adrenergic receptor,low concentration partial agonist
same,ability to cross the blood-brain barrier and accumulate in the cerebral spinal fluid,[4],unexpectedly high ability to cross the blood-brain barrier
CC(C)(C)NC[C@H](O)c1cccc(C#N)n1.Cl [Compound 2],solubility,[1]; [7],> 5 mg/mL
same,solubility at 0.5 h,[1]; [8],> 5 mg/mL
same,solubility,[1]; [9],> 5 mg/mL
same,solubility at 0.5 h,[1]; [10],> 5 mg/mL
same,solubility,[1]; [11],> 5 mg/mL
same,solubility at 0.5 h,[1]; [12],> 5 mg/mL
same,solubility,[1]; [6],> 5 mg/mL
same,dissolution in each of the 4 media,"[1]; at rt, about 15 mg in 3 mL",dissolved immediately
same,pH 24 h,[1]; pH of solubility sample in FaSSIF at 24 h (control 6.53),6.47
same,pH 24 h,[1]; pH of solubility sample in FeSSIF at 24 h (control 5.01),5.01
same,pH 24 h,[1]; pH of solubility sample in SGF at 24 h (control 1.19),1.11
same,pH 24 h,[1]; pH of solubility sample in water at 24 h (control 5.26),5.24
same,solubility,[1]; [13],> 5 mg/mL
same,solubility at 0.5 h,[1]; [14],> 5 mg/mL
same,solubility,"[2]; FaSSIF, FaSSIF, read-out: Solubility (mg/mL) FaSSIF",> 100 mg/mL
same,solubility,"[2]; FeSSIF, FeSSIF, read-out: Solubility (mg/mL) FeSSIF",> 100 mg/mL
same,solubility,"[2]; SGF, simulated gastric fluid, SGF, read-out: Solubility (mg/mL) SGF",> 101 mg/mL
same,solubility,"[2]; water, water, read-out: Solubility (mg/mL) Water",> 102 mg/mL
same,Purity @ 0 d (Area%),[3],99.27% Area%
same,Solid form @ 7 d 40° C./75%RH,[3],unchanged
same,Purity @ 7 d (Area%) 40° C./75%RH,[3],99.27% Area%
same,Solid form @ 7 d 60° C.,[3],unchanged
same,Purity @ 7 d (Area%) 60° C.,[3],99.25% Area%
same,water uptake at 80%RH,"[5]; DVS, 25° C.",0.58%
same,XRPD pattern after DVS testing,[5],remained unchanged
CC(C)(C)NC[C@H](O)c1cccc(C#N)n1.Cc1ccc(S(=O)(=O)O)cc1 [Compound 5],water uptake at 80%RH,"[5]; DVS, 25° C.",1.25%
same,water uptake at 90%RH,"[5]; DVS, 25° C., 90%RH",2.77%
same,XRPD pattern after DVS testing,[5],remained unchanged
CC(C)(C)NC[C@H](O)c1cccc(C#N)n1 [Compound 9],solubility,[1]; [7],> 5 mg/mL
same,solubility at 0.5 h,[1]; [8],> 5 mg/mL
same,solubility,[1]; [9],> 5 mg/mL
same,solubility at 0.5 h,[1]; [10],> 5 mg/mL
same,solubility,[1]; [11],> 5 mg/mL
same,solubility at 0.5 h,[1]; [12],> 5 mg/mL
same,pH 24 h,"[1]; pH of solubility sample in FaSSIF at 24 h (control 6.53), listed as Compound 9 Form A",6.51
same,pH 24 h,"[1]; pH of solubility sample in FeSSIF at 24 h (control 5.01), listed as Compound 9 Form A",5.01
same,pH 24 h,"[1]; pH of solubility sample in SGF at 24 h (control 1.19), listed as Compound 9 Form A",1.18
same,pH 24 h,"[1]; pH of solubility sample in water at 24 h (control 5.26), listed as Compound 9 Form A",5.68
same,time until dissolved in each medium,[1]; listed as Compound 9 Form A,About 15 minutes
same,solubility,[1]; [13],> 5 mg/mL
same,solubility at 0.5 h,[1]; [14],> 5 mg/mL
same,Solubility (mg/mL) FaSSIF,"[2]; FaSSIF, listed as Compound 9 Form A",>71.4 mg/mL
same,Solubility (mg/mL) FeSSIF,"[2]; FeSSIF, listed as Compound 9 Form A",>101.4 mg/mL
same,Solubility (mg/mL) SGF,"[2]; SGF, listed as Compound 9 Form A",>71.4 mg/mL
same,Solubility (mg/mL) Water,"[2]; water, listed as Compound 9 Form A",>71.3 mg/mL
same,Purity @ 0 d (Area%),[3]; listed as Compound 9 Form A,98.62% Area%
same,Purity @ 7 d (Area%) 40° C./75%RH,[3]; listed as Compound 9 Form A,98.49% Area%
same,Purity @ 7 d (Area%) 60° C.,[3]; listed as Compound 9 Form A,98.62% Area%
same,water uptake at 80%RH,"[5]; DVS, 25° C.",1.05%
same,XRPD pattern after DVS testing,[5],remained unchanged
